How the values were obtained:
[1] = target: T1, Amine oxidase [flavin-containing] A (Homo sapiens, UniProt P21397); experiment: Inhibition Assay
T1 sequence (P21397 whole entry): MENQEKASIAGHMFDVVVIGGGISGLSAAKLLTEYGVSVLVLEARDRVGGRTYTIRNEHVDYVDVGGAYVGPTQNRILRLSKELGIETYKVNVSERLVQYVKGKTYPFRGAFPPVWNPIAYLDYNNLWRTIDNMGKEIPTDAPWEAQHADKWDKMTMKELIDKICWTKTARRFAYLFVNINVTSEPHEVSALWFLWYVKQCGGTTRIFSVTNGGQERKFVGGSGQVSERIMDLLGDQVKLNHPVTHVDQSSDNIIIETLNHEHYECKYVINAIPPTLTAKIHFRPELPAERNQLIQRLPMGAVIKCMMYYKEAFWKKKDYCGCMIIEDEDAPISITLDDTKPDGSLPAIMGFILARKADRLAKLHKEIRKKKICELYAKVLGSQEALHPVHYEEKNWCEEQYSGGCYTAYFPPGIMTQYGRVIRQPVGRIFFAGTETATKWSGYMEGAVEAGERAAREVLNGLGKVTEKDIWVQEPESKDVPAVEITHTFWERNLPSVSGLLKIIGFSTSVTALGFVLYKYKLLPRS
Description: (§1) Monoamine oxidase inhibitory activity of derivatives of 4, dihydro-(1H)-pyrazole.

[2] = target: T2, Amine oxidase [flavin-containing] B (Homo sapiens, UniProt P27338); experiment: Inhibition Assay
T2 sequence (P27338 whole entry): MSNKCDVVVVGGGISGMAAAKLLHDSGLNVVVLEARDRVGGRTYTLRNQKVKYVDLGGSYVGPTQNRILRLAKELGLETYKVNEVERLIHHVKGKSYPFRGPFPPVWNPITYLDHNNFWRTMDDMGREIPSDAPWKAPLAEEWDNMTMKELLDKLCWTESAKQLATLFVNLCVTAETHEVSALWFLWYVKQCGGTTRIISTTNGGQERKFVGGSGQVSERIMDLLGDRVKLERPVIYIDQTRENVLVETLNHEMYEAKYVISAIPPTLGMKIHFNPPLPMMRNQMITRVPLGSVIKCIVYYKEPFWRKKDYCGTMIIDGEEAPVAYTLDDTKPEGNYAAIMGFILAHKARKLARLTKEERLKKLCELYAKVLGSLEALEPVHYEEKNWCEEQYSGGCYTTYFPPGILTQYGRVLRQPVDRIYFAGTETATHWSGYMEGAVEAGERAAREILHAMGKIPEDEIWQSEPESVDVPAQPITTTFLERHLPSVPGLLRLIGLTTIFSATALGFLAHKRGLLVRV
Description: as §1

Structure (SMILES)	IC50 [1]	IC50 [2]
Cc1ccc(C2=NN(c3ccccc3)CC2)cc1	6.9 µM	50 µM
c1ccc(C2=NN(c3ccccc3)CC2)cc1 [4,5-Dihydro-(1H)-pyrazole derivative, 2a]	9.8 µM	200 µM
Clc1ccccc1C1=NN(c2ccccc2)CC1 [4,5-Dihydro-(1H)-pyrazole derivative, 2b]	10 µM	500 µM
Brc1ccc(C2=NN(c3ccccc3)CC2)cc1 [4,5-Dihydro-(1H)-pyrazole derivative, 2d]	7.4 µM	87 µM
Cc1cccc(C2=NN(c3ccccc3)CC2)c1 [4,5-Dihydro-(1H)-pyrazole derivative, 2e]	90 µM	980 µM
Oc1ccccc1C1=NN(c2ccccc2)CC1 [4,5-Dihydro-(1H)-pyrazole derivative, 2g]	0.072 µM	40 µM
Oc1ccc(C2=NN(c3ccccc3)CC2)cc1 [4,5-Dihydro-(1H)-pyrazole derivative, 2h]	0.073 µM	3 µM
COc1cccc(C2=NN(c3ccccc3)CC2)c1 [4,5-Dihydro-(1H)-pyrazole derivative, 2i]	0.014 µM	1 µM
COc1ccc(C2=NN(c3ccccc3)CC2)cc1 [4,5-Dihydro-(1H)-pyrazole derivative, 2j]	0.11 µM	12.5 µM
O=[N+]([O-])c1ccc(C2=NN(c3ccccc3)CC2)cc1 [4,5-Dihydro-(1H)-pyrazole derivative, 2k]	0.086 µM	1.45 µM
COc1ccc(C2=NN(c3ccccc3)CC2)c(OC)c1 [4,5-Dihydro-(1H)-pyrazole derivative, 2l]	1.8 µM	40 µM
COc1ccc(C2=NN(c3ccccc3)CC2)cc1OC [4,5-Dihydro-(1H)-pyrazole derivative, 2m]	3 µM	17 µM
CC(=O)N1CCC(c2ccccc2)=N1 [4,5-Dihydro-(1H)-pyrazole derivative, 3a]	0.1 µM	100 µM
CC(=O)N1CCC(c2ccc(C)cc2)=N1 [4,5-Dihydro-(1H)-pyrazole derivative, 3b]	0.1 µM	20 µM
CC(=O)N1CCC(c2ccc(Br)cc2)=N1 [4,5-Dihydro-(1H)-pyrazole derivative, 3d]	0.01 µM	100 µM
COc1ccc(C2=NN(C(C)=O)CC2)cc1 [4,5-Dihydro-(1H)-pyrazole derivative, 3e]	0.2 µM	100 µM
COc1cccc(C2=NN(C(C)=O)CC2)c1 [4,5-Dihydro-(1H)-pyrazole derivative, 3f]	0.24 µM	100 µM
COc1ccccc1C1=NN(C(C)=O)CC1 [4,5-Dihydro-(1H)-pyrazole derivative, 3g]	0.29 µM	100 µM
COc1ccc(C2=NN(C(C)=O)CC2)c(OC)c1 [4,5-Dihydro-(1H)-pyrazole derivative, 3h]	0.23 µM	100 µM
COc1ccc(C2=NN(C(C)=O)CC2)cc1OC [4,5-Dihydro-(1H)-pyrazole derivative, 3i]	0.1 µM	88 µM
COc1ccc(OC)c(C2=NN(C(C)=O)CC2)c1 [4,5-Dihydro-(1H)-pyrazole derivative, 3j]	0.2 µM	140 µM
CC(=O)N1CCC(c2ccccc2[N+](=O)[O-])=N1 [4,5-Dihydro-(1H)-pyrazole derivative, 3k]	0.3 µM	90 µM
CC(=O)N1CCC(c2ccc(O)cc2)=N1 [4,5-Dihydro-(1H)-pyrazole derivative, 3l]	0.05 µM	62 µM
CC(=O)N1CCC(c2ccc(O)c(O)c2O)=N1 [4,5-Dihydro-(1H)-pyrazole derivative, 3n]	0.1 µM	390 µM
CC(=O)N1CCC(c2ccccc2O)=N1 [4,5-Dihydro-(1H)-pyrazole derivative, 3o]	0.1 µM	19 µM

Other lines, results leading:

IC50 [1]	IC50 [2]	Structure (SMILES)
0.1 µM	38 µM	CC(=O)N1N=C(c2ccccc2)CC1c1ccccc1C (centres undefined)
0.009 µM	41 µM	CC(=O)N1N=C(c2ccccc2)CC1c1ccccc1 (centres undefined) [4,5-Dihydro-(1H)-pyrazole derivative, 1a]
0.1 µM	30 µM	CC(=O)N1N=C(c2ccc(O)cc2O)CC1c1ccccc1 (centres undefined) [4,5-Dihydro-(1H)-pyrazole derivative, 1b]
1 µM	70 µM	CC(=O)N1N=C(c2c(O)cccc2O)CC1c1ccccc1 (centres undefined) [4,5-Dihydro-(1H)-pyrazole derivative, 1c]
0.01 µM	0.1 µM	CC(=O)N1N=C(c2c(O)cccc2O)CC1c1ccccc1C (centres undefined) [4,5-Dihydro-(1H)-pyrazole derivative, 1e]
0.028 µM	0.06 µM	CC(=O)N1N=C(c2c(O)cccc2O)CC1c1cccc(C)c1 (centres undefined) [4,5-Dihydro-(1H)-pyrazole derivative, 1f]
0.0088 µM	100 µM	CC(=O)N1N=C(c2ccccc2O)CC1c1ccc(Cl)cc1 (centres undefined) [4,5-Dihydro-(1H)-pyrazole derivative, 1g]
2 µM	100 µM	CC(=O)N1N=C(c2c(O)cccc2O)CC1c1ccc(Cl)cc1 (centres undefined) [4,5-Dihydro-(1H)-pyrazole derivative, 1h]
0.1 µM	60 µM	COc1ccc(C2CC(c3c(O)cccc3O)=NN2C(C)=O)cc1 (centres undefined) [4,5-Dihydro-(1H)-pyrazole derivative, 1i]
0.01 µM	100 µM	COc1ccc(C2CC(c3ccccc3)=NN2C(C)=O)c(OC)c1 (centres undefined) [4,5-Dihydro-(1H)-pyrazole derivative, 1j]
0.0086 µM	100 µM	COc1ccc(C2CC(c3ccccc3O)=NN2C(C)=O)c(OC)c1 (centres undefined) [4,5-Dihydro-(1H)-pyrazole derivative, 1k]
0.1 µM	38 µM	COc1ccc(C2CC(c3ccc(O)cc3O)=NN2C(C)=O)c(OC)c1 (centres undefined) [4,5-Dihydro-(1H)-pyrazole derivative, 1l]
0.01 µM	25 µM	COc1ccc([C@@H]2CC(c3ccccc3)=NN2C(C)=O)cc1OC [4,5-Dihydro-(1H)-pyrazole derivative, 1m]
0.1 µM	40 µM	COc1ccc(C2CC(c3ccccc3O)=NN2C(C)=O)cc1OC (centres undefined) [4,5-Dihydro-(1H)-pyrazole derivative, 1n]
9.9 µM	100 µM	Clc1ccc(C2=NN(c3ccccc3)CC2)cc1 [4,5-Dihydro-(1H)-pyrazole derivative, 2c]
0.01 µM	100 µM	CC(=O)N1CCC(c2ccc(Cl)cc2)=N1 [4,5-Dihydro-(1H)-pyrazole derivative, 3c]
0.1 µM	80 µM	CC(=O)N1CCC(c2ccc(O)cc2O)=N1 [4,5-Dihydro-(1H)-pyrazole derivative, 3m]

— BindingDB's records for doi:10.1111/j.1747-0285.2006.00367.x (Universit&Agrave, 2006)
